From US4687762A, “Water soluble drug complex and method for production of same” (Green Cross Corporation, priority 1984, dated 1987)
In brackets after ≈: the same amount, converted by molar mass. Like-named read-outs stand apart in the source and are kept apart here.

Assays:
[1] = Acute toxicity (LD50) in mice; details: mouse, in vivo, drug
Source text: The intravenous and oral acute toxicity values (LD50) in mice of each drug-phospholipid complex of this invention were compared with those of the corresponding component drug.

[2] = Solubility in distilled water for injection; assay type: physicochemical; details: for solubility: component drug, distilled water for injection, 20° C.
[3] = Blood pressure lowering effect in dogs (Test 2); assay type: in vivo, dog (male mongrel dogs); details: intravenous
Method: (§1) The pharmacologic effect of the drug-phospholipid complex according to this invention administered by the intravenous route was compared with that of the component drug administered in the same manner using 10 aminals. Test (1): Antitumor Effect
Test (2): Blood Pressure Lowering Effect
Ten normal male mongrel dogs were intravenously administered with prostaglandin E1 and the blood pressure of each animal was measured using a catheter inserted into the carotid artery of the animal.
The blood pressure lowing ratio was calculated according to the following equation. [formula] wherein P1 represents the blood pressure after the administration and P2 represents that before the administration.

[4] = Oral route absorption in rats; set-up: species or system rat (male Wistar); details: rat, in vivo
Source text: The oral route absorption of the drug-phospholipid complex according to this invention administered was compared with that of the component drug similarly administered. […] Twenty-four hours after the administration, the degree of retention of the drug in each organ was estimated by determining the radio-activity level.

[5] = system: L-1210 mouse ascites tumor cells; experiment: Antitumor effect, life prolongation in L-1210 inoculated mice (Test 1); assay type: in vivo; details: intravenous, 5 days, BDF1 mice
Method: as §1
Ten male BDF1 mice ([…]) were inoculated with 10^6 cells of L-1210 mouse ascites tumor cells. After 24 hours from the inoculation Sapdicomycin as a drug was administered to the animals for continuous 5 days, and the number of days in which the test animals were dead. The life prolongation ratio was calculated according to the following equation. [formula] wherein A1 represents an average survival period (day) of control group (without administration) and A2 represents that of administered group.

[6] = set-up: species or system rat (male Wistar); details: rat, in vivo, iv, 1440 min
Source text: The organ affinity of the drug-phospholipid complex according to this invention was compared with that of the component drug. […] Twenty-four hours after the administration, the degree of retention of the drug in each organ was estimated by determining the radio-activity level.

[7] = intravenous, read-out: Acute Toxicity (LD50), Intravenous Administration, Drug
[8] = oral, read-out: Acute Toxicity (LD50), Oral Administration, Drug

O=c1[nH]cc(F)c(=O)[nH]1 [5-Fluorouracil]
LD50 [1, 7]: 173 mg/kg
LD50 [1, 8]: 249 mg/kg
solubility [2]: 13000 µg/mL (≈ 99900 µM)

COc1ccc2c(c1)c(CC(=O)OCC(=O)O)c(C)n2C(=O)c1ccc(Cl)cc1 [Acemetacin, acemetacin]
solubility [2]: 400 µg/mL (≈ 962 µM)

COc1cccc2c1C(=O)c1c(O)c3c(c(O)c1C2=O)C[C@@](O)(C(=O)CO)C[C@@H]3O[C@H]1C[C@H](N)[C@H](O)[C@H](C)O1 [Adriamycin, adriamycin]
LD50 [1, 7]: 9.1 mg/kg
LD50 [1, 8]: 737 mg/kg
solubility [2]: 7000 µg/mL (≈ 12900 µM)

COc1cccc2c1C(=O)c1c(O)c3c(c(O)c1C2=O)C[C@@](O)(C(C)=O)C[C@@H]3O[C@H]1C[C@H](N)[C@H](O)[C@H](C)O1 [Daunomycin, daunomycin]
LD50 [1, 7]: 23.5 mg/kg
LD50 [1, 8]: 271 mg/kg
solubility [2]: 20000 µg/mL (≈ 37900 µM)

C[C@@H]1C[C@H]2[C@@H]3CCC4=CC(=O)C=C[C@]4(C)[C@@]3(F)[C@@H](O)C[C@]2(C)[C@@]1(O)C(=O)CO [Dexamethasone, dexamethasone]
solubility [2]: 50 µg/mL (≈ 127 µM)

CC(C(=O)O)c1ccc(-c2ccccc2)c(F)c1 (centres unmarked) [Flurbiprofen, flurbiprofen]
solubility [2]: 150 µg/mL (≈ 614 µM)

CCCCC[C@H](O)/C=C/[C@H]1[C@H](O)CC(=O)[C@@H]1CCCCCCC(=O)O [Prostaglandin E1, prostaglandin E1]
LD50 [1, 8]: 7570 mg/kg
Blood pressure lowering ratio, Drug ([3]; 0.25 mg/kg): 4.8%
Blood pressure lowering ratio, Drug ([3]; 0.5 mg/kg): 7.7%
Blood pressure lowering ratio, Drug ([3]; 1.0 mg/kg): 10.5%
solubility [2]: 70 µg/mL (≈ 197 µM)

spadicomycin
Absorption Rate, Drug [4]: 2.0%
Antitumor effect (life prolongation ratio), Drug ([5]; 2.5 mg/kg): 19%
Antitumor effect (life prolongation ratio), Drug ([5]; 5.0 mg/kg): 25%
Antitumor effect (life prolongation ratio), Drug ([5]; 10.0 mg/kg): 50%
Solubility, Component Drug ([2]; water): 55000 µg/mL
Retention in kidney, Drug [6]: 129 dpm per Gram Organ Weight
Retention in liver, Drug [6]: 585 dpm per Gram Organ Weight
Retention in tumor, Drug [6]: 3800 dpm per Gram Organ Weight
Retention in whole blood, Drug [6]: 825 dpm per Gram Organ Weight
